Data as given in BindingDB's records for doi:10.1021/acsmedchemlett.8b00220 (Merck, 2018).

Experiments:
[1] = Inhibition of CYP3A4 (unknown origin) co-incubated with substrate
[2] = Inhibition of CYP3A4 (unknown origin) preincubated followed by substrate addition

IC50 [1]: > 30 µM
IC50 [2]: 2 µM
Compound: CS[C@@]1(C(=O)Nc2ccc3[nH]nc(-c4ccc(F)cc4)c3c2)CCN(CC(=O)N2CC=C(c3ccc(-c4ncccn4)cc3)CC2)C1 [US8546404, 613]
